This test addresses Flap endonuclease 1 (Homo sapiens, UniProt P39748). As to the kind of experiment: Enzymatic IC50 Assays: FEN1, EXO1 or XPG enzyme was incubated with compound or vehicle (DMSO) and the FAM-labeled DNA oligomer substrate in a microtiter plate. The stop buffer contains EDTA to stop the enzymatic reaction. The plate is read for fluorescence intensity. The high control (DMSO) with high fluorescence intensity represents no inhibition of enzymatic reaction while the low control (10 μM) with low fluorescence intensity represents full inhibition of enzymatic reaction.

A value given as a limit tells only on which side of the number the result lay.

Sequence of Flap endonuclease 1 (P39748 whole entry): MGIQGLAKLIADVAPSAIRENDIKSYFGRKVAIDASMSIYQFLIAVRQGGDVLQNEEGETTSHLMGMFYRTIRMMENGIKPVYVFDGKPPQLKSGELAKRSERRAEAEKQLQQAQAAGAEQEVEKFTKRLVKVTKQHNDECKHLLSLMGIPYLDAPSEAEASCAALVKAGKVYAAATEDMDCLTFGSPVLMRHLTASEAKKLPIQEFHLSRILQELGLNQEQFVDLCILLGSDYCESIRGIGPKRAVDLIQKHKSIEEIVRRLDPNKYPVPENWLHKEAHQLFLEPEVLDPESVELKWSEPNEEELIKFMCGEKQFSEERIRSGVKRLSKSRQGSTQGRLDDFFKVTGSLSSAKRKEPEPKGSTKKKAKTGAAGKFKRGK

Regarding `O=C(O)c1c(O)c(=O)n(Cc2cnc3ccccn23)c2ccsc12`, the 50% inhibitory concentration (IC50) is below 0.2 µM.

Regarding `COc1cccc(-n2cc(Cn3c(=O)c(O)c(C(=O)O)c4sccc43)cn2)c1`, the concentration for half-maximal inhibition (IC50) is below 0.2 µM.

In the case of `COc1ccc(Cn2c(=O)c(O)c(C(=O)O)c3sccc32)cn1`, the IC50 was below 0.2 µM.

Take `COc1ccc(Cn2cc(Cn3c(=O)c(O)c(C(=O)O)c4sccc43)cn2)cc1`: the half-maximal inhibitory concentration (IC50) is below 0.2 µM.

With `Cc1c(Cn2c(=O)c(O)c(C(=O)O)c3sccc32)cnn1C`, the IC50 is below 0.2 µM.

Regarding `O=C(O)c1c(O)c(=O)n(Cc2cnn(-c3cccc(Cl)c3)c2)c2ccsc12`, the IC50 is below 0.2 µM.

(Values after ChEMBL document CHEMBL5729604, “Dihydrothieno[3,2-b]pyridine compounds” (2023).)
